# Like-named read-outs stand apart in the source and are kept apart here.
# Assays:
# [1] = target: T1, human DGKα (Homo sapiens, UniProt P23743); assay: DGKα LIPGLO assay (extruded liposome substrate), in vitro DGK inhibition; type: biochemical; details: read-out: DGKa LIPGLO IC50
# T1 construct: TVMV protease cleavage site (C); Hexa-His (C); made in house; host or cells: Sf9 insect cells (baculovirus, Bac-to-Bac)
# [2] = target: T2, human DGKζ (Homo sapiens, UniProt Q13574); assay: DGKζ LIPGLO assay (extruded liposome substrate), in vitro DGK inhibition; type: biochemical; details: read-out: DGKz LIPGLO IC50
# T2 construct: TVMV protease cleavage site (C); Hexa-His (C); made in house; host or cells: Sf9 insect cells (baculovirus, Bac-to-Bac)
# [3] = system: OT-1 CD8+ T cells with SIINFEKL-loaded MC38 tumor cells; assay: Murine cytotoxic T lymphocyte assay (IFN-γ, OT-1 CTL with MC38 tumor cells); type: cell-based, mouse; details: read-out: msCTL INFg IC50
# Description: 5. Murine Cytotoxic T Lymphocyte Assay
# An antigen-specific cytolytic T-cell (CTL) assay was developed to evaluate functionally the ability of DGKα and DGKζ inhibitors to enhance effector T cell mediated tumor cell killing activity. CD8+ T-cells isolated from the OT-1 transgenic mouse recognize antigen presenting cells, MC38, that present the ovalbumin derived peptide […]. Recognition of the cognate antigen initiates the cytolytic activity of the OT-1 antigen-specific CD8+ T cells.
# Functional CTL cells were generated as follows: OT-1 splenocytes from 8-12 week old mice were isolated and expanded in the presence of the […] peptide at 1 μg/mL and mIL2 at 10 U/mL. After three days, fresh media with […] was added. On day 5 of the expansion, the CD8+ T cells were isolated and ready for use. Activated CTL cells may be stored frozen for 6 months. Separately, one million MC38 tumor cells were pulsed with 1 μg/mL of […]-OVA peptide for 3 hours at 37° C. The cells were washed (3×) with fresh media to remove excess peptide. Finally, CTL cells that were pretreated with DGK inhibitors for 1 hour in a 96-well U bottom plate were combined with the antigen loaded MC38 tumor cells at a 1:10 ratio. The cells were then spun at 700 rpm for 5 min and placed in an incubator overnight at 37° C. After 24 hours, the supernatant was collected for analysis of IFN-γ cytokine levels by AlphaLisa purchased from Perkin Elmer.
# [4] = system: naïve human CD8 T cells; assay: Human CD8 T cells IFN-γ assay; type: cell-based; details: normalized to 3 μM reference compound with anti-CD3 plus anti-CD28 as 100% activation, read-out: HuCD8 INFG Normalized EC50;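 further: Naïve human CD8 T cells stimulated with plate-bound anti-CD3 and soluble anti-CD28, IFN-γ in supernatant quantified by AlphaLISA and converted to pg/mL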
# [5] = system: Human venous whole blood; assay: Human whole blood IFN-γ assay; type: cell-based; details: human whole blood, read-out: INFg Whole Blood Normalized Agonist EC50;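 further: blood from healthy donors exposed to compound for 1 h before stimulation with anti-CD3 and anti-CD28 at 1 µg/mL each, IFN-γ quantified in supernatant by AlphaLISA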
# [6] = Homo sapiens, 24 h, normalized to 3 μM reference compound with anti-CD3 plus anti-CD28 as 100% activation
# [7] = normalized to 3 μM reference compound with anti-CD3 plus anti-CD28 as 100% activation
# T2 sequence (Q13574 with tags, fused parts or gaps isoform Q13574-4): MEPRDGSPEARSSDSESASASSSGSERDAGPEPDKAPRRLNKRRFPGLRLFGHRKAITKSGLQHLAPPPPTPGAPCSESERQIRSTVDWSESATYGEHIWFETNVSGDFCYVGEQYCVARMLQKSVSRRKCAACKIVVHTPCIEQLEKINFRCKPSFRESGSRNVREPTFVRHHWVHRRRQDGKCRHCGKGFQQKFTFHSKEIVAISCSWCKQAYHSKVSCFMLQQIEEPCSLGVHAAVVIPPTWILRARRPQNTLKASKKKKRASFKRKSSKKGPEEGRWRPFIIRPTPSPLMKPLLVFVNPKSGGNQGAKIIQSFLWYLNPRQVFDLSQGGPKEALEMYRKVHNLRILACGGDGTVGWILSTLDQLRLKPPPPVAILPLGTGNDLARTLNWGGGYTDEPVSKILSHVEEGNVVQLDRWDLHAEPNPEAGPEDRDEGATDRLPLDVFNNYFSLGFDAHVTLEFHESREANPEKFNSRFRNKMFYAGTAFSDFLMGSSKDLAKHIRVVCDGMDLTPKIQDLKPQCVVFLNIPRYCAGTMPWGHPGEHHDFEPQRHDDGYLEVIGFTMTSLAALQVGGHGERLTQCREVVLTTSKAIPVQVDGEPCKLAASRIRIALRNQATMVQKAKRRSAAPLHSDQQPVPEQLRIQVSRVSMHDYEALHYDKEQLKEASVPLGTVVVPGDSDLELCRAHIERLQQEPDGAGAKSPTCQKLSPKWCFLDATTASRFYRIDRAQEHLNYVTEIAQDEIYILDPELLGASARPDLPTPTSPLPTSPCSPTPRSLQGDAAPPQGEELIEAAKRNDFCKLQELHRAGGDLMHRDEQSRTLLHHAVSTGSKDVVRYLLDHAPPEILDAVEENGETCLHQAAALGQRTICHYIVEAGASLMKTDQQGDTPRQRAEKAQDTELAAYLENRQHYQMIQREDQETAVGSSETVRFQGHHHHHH
# T1 sequence (P23743 with tags, fused parts or gaps): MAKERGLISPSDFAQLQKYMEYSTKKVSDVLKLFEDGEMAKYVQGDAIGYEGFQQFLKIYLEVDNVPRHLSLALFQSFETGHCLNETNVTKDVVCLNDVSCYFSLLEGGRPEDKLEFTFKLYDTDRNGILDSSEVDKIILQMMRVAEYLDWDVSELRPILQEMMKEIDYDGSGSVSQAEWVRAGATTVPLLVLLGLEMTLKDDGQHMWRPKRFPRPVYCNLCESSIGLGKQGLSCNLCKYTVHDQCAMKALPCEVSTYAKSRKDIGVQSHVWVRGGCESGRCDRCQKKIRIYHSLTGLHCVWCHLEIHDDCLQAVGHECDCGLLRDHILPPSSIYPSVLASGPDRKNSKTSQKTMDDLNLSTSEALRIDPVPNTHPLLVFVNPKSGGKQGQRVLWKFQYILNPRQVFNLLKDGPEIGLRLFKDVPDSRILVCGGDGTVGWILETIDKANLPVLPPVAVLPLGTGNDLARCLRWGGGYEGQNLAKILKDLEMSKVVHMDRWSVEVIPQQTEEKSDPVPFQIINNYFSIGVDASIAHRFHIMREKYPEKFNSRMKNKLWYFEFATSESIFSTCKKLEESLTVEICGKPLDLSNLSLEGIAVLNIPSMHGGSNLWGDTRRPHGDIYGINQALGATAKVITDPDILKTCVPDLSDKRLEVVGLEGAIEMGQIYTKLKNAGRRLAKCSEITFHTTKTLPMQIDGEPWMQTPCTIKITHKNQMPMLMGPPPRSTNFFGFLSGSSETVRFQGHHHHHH
Compound,IC50 ([1]; liposome (LIPGLO) assay) [µM],IC50 ([2]; liposome (LIPGLO) assay) [µM],"IC50 ([3]; Mus musculus, MC-38) [µM]",IC50 [3] [µM],"EC50 [5, 6] [µM]",also measured
"CC(C)OC(=O)C1CN(c2c(C#N)c(=O)n(C)c3ccc(C#N)nc23)CCN1C(c1ccc(F)cc1)c1ccc(F)cc1 (single isomer, unassigned) [Example 64, Isopropyl 1-(bis(4-fluorophenyl)methyl)-4-(3,6-dicyano-1-methyl-2-oxo-1,2-dihydro-1,5-naphthyridin-4-yl)piperazine-2-carboxylate]",240,240,8.8,–,–,EC50 [4]: 10 µM
"C[C@H]1CN(C(c2ccc(F)cc2)c2ccc(F)cc2)CCN1c1cc(=O)n(C)c2ccc(C#N)nc12 [Example 134, (S)-8-(4-(bis(4-fluorophenyl)methyl)-2-methylpiperazin-1-yl)-5-methyl-6-oxo-5,6-dihydro-1,5-naphthyridine-2-carbonitrile]",13,4.9,0.39,–,–,"EC50 ([4]; Homo sapiens, T-cell, 20 h): 0.59 µM"
"CC(C)OC(=O)C1CN(c2cc(=O)n(C)c3ccc(C#N)nc23)CCN1C(c1ccc(F)cc1)c1ccc(F)cc1 (single isomer, unassigned) [Example 63, Isopropyl 1-(bis(4-fluorophenyl)methyl)-4-(6-cyano-1-methyl-2-oxo-1,2-dihydro-1,5-naphthyridin-4-yl)piperazine-2-carboxylate]",240,240,–,1.6,–,EC50 [4]: 0.21 µM
"COC(=O)C1CN(C(c2ccc(F)cc2)c2ccc(F)cc2)CCN1c1cc(=O)n(C)c2ccc(C#N)nc12 (single isomer, unassigned) [Example 136, Methyl 4-(bis(4-fluorophenyl)methyl)-1-(6-cyano-1-methyl-2-oxo-1,2-dihydro-1,5-naphthyridin-4-yl)piperazine-2-carboxylate]",25,39,–,0.52,–,"EC50 ([4]; Homo sapiens, T-cell, 20 h): 0.95 µM"
"COC(=O)C1CN(c2c(F)c(=O)n(C)c3ccc(C#N)nc23)CCN1C(c1ccc(F)cc1)c1ccc(F)cc1 (single isomer, unassigned) [Example 74, Methyl 1-(bis(4-fluorophenyl)methyl)-4-(6-cyano-3-fluoro-1-methyl-2-oxo-1,2-dihydro-1,5-naphthyridin-4-yl)piperazine-2-carboxylate]",23,8.6,–,0.29,8.6,–
"COc1cc(F)ccc1C(c1ccc(F)cc1)N1CCN(c2cc(=O)n(C)c3ccc(C#N)nc23)[C@@H](C)C1 (single isomer, unassigned) [Example 129]",12,0.82,0.71,–,5.4,–
"COc1cc(F)ccc1C(c1ccc(F)cc1)N1C[C@H](C)N(c2c(C#N)c(=O)n(C)c3ccc(C#N)nc23)C[C@H]1C (single isomer, unassigned) [Example 112]",77,2.6,1.6,–,7,–
C[C@@H]1CN(c2c(C#N)c(=O)n(C)c3ccc(C#N)nc23)CCN1Cc1c(F)cc(F)cc1F [Example 986],–,–,–,–,–,"IC50 ([1]; DGKα liposome (LIPGLO) assay): 4.2 µM; IC50 ([2]; DGKζ liposome (LIPGLO) assay): 2.6 µM; IC50 ([3]; Mus musculus, MC-38, murine CTL, IFN-γ): 3.7 µM; EC50 ([5]; Homo sapiens, 24 h, anti-CD3 plus anti-CD28, 24 hours, 3 μM reference compound = 100% activation): 20 µM"
"Cn1c(=O)cc(N2CCN(C(c3ccc(F)cc3)c3ccc(F)cc3)CC2C2CC2)c2nc(C#N)ccc21 (single isomer, unassigned) [Example 23, 8-(4-(bis(4-fluorophenyl)methyl)-2-cyclopropylpiperazin-1-yl)-5-methyl-6-oxo-5,6-dihydro-1,5-naphthyridine-2-carbonitrile]",240,100,–,1.4,10,–
"CC1C(C)N(C(c2ccc(F)cc2)c2ccc(F)cc2)CCN1c1cc(=O)n(C)c2ccc(C#N)nc12 (single isomer, unassigned) [Example 124, 8-(4-(bis(4-fluorophenyl)methyl)-2,3-dimethylpiperazin-1-yl)-5-methyl-6-oxo-5,6-dihydro-1,5-naphthyridine-2-carbonitrile]",9.9,15,–,0.39,–,"EC50 [5, 7]: 4.8 µM"
"CC(C)C(C)(O)C1CN(c2cc(=O)n(C)c3ccc(C#N)nc23)CCN1C(c1ccc(F)cc1)c1ccc(F)cc1 (single isomer, unassigned) [Example 89, 8-(4-(bis(4-fluorophenyl)methyl)-3-(2-hydroxy-3-methylbutan-2-yl)piperazin-1-yl)-5-methyl-6-oxo-5,6-dihydro-1,5-naphthyridine-2-carbonitrile]",240,77,–,2.6,–,"EC50 [5, 7]: 20 µM"
"COC(=O)C1CN(c2cc(=O)n(C)c3ccc(C#N)nc23)CCN1C(c1ccc(F)cc1)c1ccc(F)cc1OC (single isomer, unassigned) [Example 71, Methyl 4-(6-cyano-1-methyl-2-oxo-1,2-dihydro-1,5-naphthyridin-4-yl)-1-((4-fluoro-2-methoxyphenyl)(4-fluorophenyl)methyl)piperazine-2-carboxylate]",240,52,–,3.8,–,"EC50 [5, 7]: 10 µM"

# Further molecules by falling IC50 ([1]; liposome (LIPGLO) assay), results first:
IC50 ([1]; liposome (LIPGLO) assay) [µM],IC50 ([2]; liposome (LIPGLO) assay) [µM],Compound,"IC50 ([3]; Mus musculus, MC-38) [µM]",IC50 [3] [µM],"EC50 [5, 6] [µM]",also measured
7.5,12,"Cn1c(=O)c(C#N)c(N2CCN(C(c3ccc(F)cc3)c3ccc(F)cc3)C(CO)C2)c2nc(C#N)ccc21 (single isomer, unassigned) [Example 16, 8-(4-(bis(4-fluorophenyl)methyl)-3-(hydroxymethyl)piperazin-1-yl)-5-methyl-6-oxo-5,6-dihydro-1,5-naphthyridine-2,7-dicarbonitrile]",–,1.4,–,EC50 [4]: 0.53 µM
7.4,1.2,"CC(C)C(=O)C1CN(c2cc(=O)n(C)c3ccc(C#N)nc23)CCN1C(c1ccc(F)cc1)c1ccc(F)cc1 (single isomer, unassigned) [Example 86, 8-(4-(bis(4-fluorophenyl)methyl)-3-isobutyrylpiperazin-1-yl)-5-methyl-6-oxo-5,6-dihydro-1,5-naphthyridine-2-carbonitrile]",–,0.2,2.9,–
2.4,240,"CC1C(C)N(C(c2ccc(F)cc2)c2ccc(F)cc2)CCN1c1cc(=O)n(C)c2ccc(C#N)nc12 (single isomer, unassigned) [Example 123, 8-(4-(bis(4-fluorophenyl)methyl)-2,3-dimethylpiperazin-1-yl)-5-methyl-6-oxo-5,6-dihydro-1,5-naphthyridine-2-carbonitrile]",–,2.4,–,"EC50 [5, 7]: 35 µM"
1.5,3.9,"Cn1c(=O)cc(N2CCN(C(c3ccc(F)cc3)c3ccc(F)cc3)CC2C2CC2)c2nc(C#N)ccc21 (single isomer, unassigned) [Example 24, 8-(4-(bis(4-fluorophenyl)methyl)-2-cyclopropylpiperazin-1-yl)-5-methyl-6-oxo-5,6-dihydro-1,5-naphthyridine-2-carbonitrile]",–,0.2,–,"EC50 [5, 7]: 13 µM"
1.4,0.82,"C[C@@H]1CN(c2c(Cl)c(=O)n(C)c3ccc(C#N)nc23)CCN1C(c1ccc(Cl)cc1)c1ccc(Cl)cc1 [Example 105, (R)-8-(4-(bis(4-chlorophenyl)methyl)-3-methylpiperazin-1-yl)-7-chloro-5-methyl-6-oxo-5,6-dihydro-1,5-naphthyridine-2-carbonitrile, dimethylformamide]",0.074,–,4.3,–
0.67,0.32,"Cc1ccc(C(c2ccc(F)cc2)N2C[C@H](C)N(c3cc(=O)n(C)c4ccc(C#N)nc34)C[C@H]2C)cc1 (single isomer, unassigned) [Example 251]",0.032,–,0.44,–

# Source: US10669272B2, “Substituted naphthyridinone compounds useful as T cell activators” (BRISTOL-MYERS SQUIBB COMPANY, priority 2018, dated 2020)
